In ChEMBL document CHEMBL1201862, “PubChem BioAssay data set” (2004):
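Method: 48-hour compound exposure of cells in 96-well plates, five concentrations, linear interpolation of endpoints. GI50 marks 50% less growth.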 Active and inactive are the calls of the source. No stated cut-off is given here; in the data, active = GI50 up to about 1.1 µM and inactive = higher.

Assays:
Assay in all cases: growth of human tumour cells (NCI), 48 h
K562 = test system: K562
OVCAR-5 = test system: OVCAR-5
OVCAR-3 = test system: OVCAR-3
Malme-3M = test system: Malme-3M
786-0 = test system: 786-0
ACHN = test system: ACHN
LXFL 529 = test system: LXFL 529
SF-295 = test system: SF-295
SK-MEL-5 = test system: SK-MEL-5
SNB-78 = test system: SNB-78
OVCAR-8 = test system: OVCAR-8
NCI-H522 = test system: NCI-H522
OVCAR-4 = test system: OVCAR-4
XF498 = test system: XF498
HCT-116 = test system: HCT-116
LOX IMVI = test system: LOX IMVI
UO-31 = test system: UO-31
DMS-273 = test system: DMS-273
SF-268 = test system: SF-268
IGROV-1 = test system: IGROV-1
M14 = test system: M14
KM12 = test system: KM12
DMS-114 = test system: DMS-114
SK-MEL-28 = test system: SK-MEL-28
TK-10 = test system: TK-10
SR = test system: SR
SNB-75 = test system: SNB-75
RPMI-8226 = test system: RPMI-8226
CCRF-CEM = test system: CCRF-CEM
COLO 205 = test system: COLO 205
SN12C = test system: SN12C
UACC-62 = test system: UACC-62
NCI-H226 = test system: NCI-H226
MOLT-4 = test system: MOLT-4
HOP-92 = test system: HOP-92
EKVX = test system: EKVX
A549 = test system: A549
SNB-19 = test system: SNB-19
DLD-1 = test system: DLD-1
HOP-62 = test system: HOP-62
SK-OV-3 = test system: SK-OV-3
HT-29 = test system: HT-29
SK-MEL-2 = test system: SK-MEL-2
UACC-257 = test system: UACC-257
RXF 631 = test system: RXF 631
CAKI-1 = test system: CAKI-1
U-251 = test system: U-251
M19-MEL = test system: M19-MEL
NCI-H23 = test system: NCI-H23
SW-620 = test system: SW-620
NCI-H460 = test system: NCI-H460
SF-539 = test system: SF-539
HCC 2998 = test system: HCC 2998
A498 = test system: A498
HOP-18 = test system: HOP-18
KM-20L2 = test system: KM-20L2
HL-60 = test system: HL-60
HCT-15 = test system: HCT-15
RXF 393 = test system: RXF 393

For `CC1CC[C@]2(C(=O)O)CCC3(C)C(=CCC4[C@@]5(C)CC[C@H](OS(=O)(=O)c6ccccc6)C(C)(C)C5CC[C@]43C)[C@@H]2[C@H]1C` (stereo partly specified), the GI50 (K562) was 51.4 µM (inactive), the GI50 (OVCAR-5) was > 100 µM (inactive) and the GI50 (OVCAR-3) was > 100 µM (inactive). The GI50 (Malme-3M) was > 100 µM (inactive), the GI50 (786-0) was > 100 µM (inactive) and the GI50 (ACHN) was 52.2 µM (inactive). For the same molecule, the GI50 (LXFL 529) was 69.8 µM (inactive), the GI50 (SF-295) was > 100 µM (inactive) and the GI50 (SK-MEL-5) was > 100 µM (inactive). For the same molecule, the GI50 (SNB-78) was > 100 µM (inactive), the GI50 (OVCAR-8) was > 100 µM (inactive) and the GI50 (NCI-H522) was 53.8 µM (inactive). The GI50 (OVCAR-4) was > 100 µM (inactive), the GI50 (XF498) was 36.4 µM (inactive) and the GI50 (HCT-116) was 27.2 µM (inactive). For the same molecule, the GI50 (LOX IMVI) was 83 µM (inactive), the GI50 (UO-31) was 88.9 µM (inactive) and the GI50 (DMS-273) was > 100 µM (inactive). For the same molecule, the GI50 (SF-268) was > 100 µM (inactive), the GI50 (IGROV-1) was > 100 µM (inactive) and the GI50 (M14) was > 100 µM (inactive). The GI50 (KM12) was > 100 µM (inactive), the GI50 (DMS-114) was 39.2 µM (inactive) and the GI50 (SK-MEL-28) was > 100 µM (inactive). For the same molecule, the GI50 (TK-10) was > 100 µM (inactive), the GI50 (SR) was 36.8 µM (inactive) and the GI50 (SNB-75) was > 100 µM (inactive). For the same molecule, the GI50 (RPMI-8226) was 35 µM (inactive), the GI50 (CCRF-CEM) was 78 µM (inactive) and the GI50 (COLO 205) was 38.1 µM (inactive). For the same molecule, the GI50 (SN12C) was > 100 µM (inactive), the GI50 (UACC-62) was > 100 µM (inactive) and the GI50 (NCI-H226) was 62.2 µM (inactive). The GI50 (MOLT-4) was 34.3 µM (inactive), the GI50 (HOP-92) was > 100 µM (inactive) and the GI50 (EKVX) was 55.1 µM (inactive). The GI50 (A549) was 36.6 µM (inactive), the GI50 (SNB-19) was > 100 µM (inactive) and the GI50 (DLD-1) was 82 µM (inactive). The GI50 (HOP-62) was > 100 µM (inactive), the GI50 (SK-OV-3) was > 100 µM (inactive) and the GI50 (HT-29) was > 100 µM (inactive). For the same molecule, the GI50 (SK-MEL-2) was 48.9 µM (inactive), the GI50 (UACC-257) was > 100 µM (inactive) and the GI50 (RXF 631) was > 100 µM (inactive). The GI50 (CAKI-1) was > 100 µM (inactive), the GI50 (U-251) was 83.2 µM (inactive) and the GI50 (M19-MEL) was > 100 µM (inactive). For the same molecule, the GI50 (NCI-H23) was 52.7 µM (inactive), the GI50 (SW-620) was > 100 µM (inactive) and the GI50 (NCI-H460) was > 100 µM (inactive). For the same molecule, the GI50 (SF-539) was > 100 µM (inactive), the GI50 (HCC 2998) was 63.8 µM (inactive) and the GI50 (A498) was > 100 µM (inactive). The GI50 (HOP-18) was 37.9 µM (inactive).
In the case of `CN(C)C(=N/O)/C(=N\O)N(C)C`, the GI50 (K562) is reported as > 100 µM (inactive), the GI50 (OVCAR-5) is reported as > 100 µM (inactive) and the GI50 (Malme-3M) is reported as > 100 µM (inactive). For the same molecule, the GI50 (786-0) was > 100 µM (inactive), the GI50 (ACHN) was > 100 µM (inactive) and the GI50 (KM-20L2) was > 100 µM (inactive). The GI50 (LXFL 529) was > 100 µM (inactive), the GI50 (SF-295) was > 100 µM (inactive) and the GI50 (SNB-78) was > 100 µM (inactive). For the same molecule, the GI50 (OVCAR-8) was > 100 µM (inactive), the GI50 (NCI-H522) was > 100 µM (inactive) and the GI50 (OVCAR-4) was > 100 µM (inactive). For the same molecule, the GI50 (XF498) was > 100 µM (inactive), the GI50 (HCT-116) was > 100 µM (inactive) and the GI50 (HL-60) was > 100 µM (inactive). For the same molecule, the GI50 (LOX IMVI) was > 100 µM (inactive), the GI50 (UO-31) was > 100 µM (inactive) and the GI50 (DMS-273) was > 100 µM (inactive). For the same molecule, the GI50 (SF-268) was > 100 µM (inactive), the GI50 (IGROV-1) was > 100 µM (inactive) and the GI50 (M14) was > 100 µM (inactive). For the same molecule, the GI50 (KM12) was > 100 µM (inactive), the GI50 (HCT-15) was greater than 100 µM and the GI50 (DMS-114) was > 100 µM (inactive). The GI50 (SK-MEL-28) was > 100 µM (inactive), the GI50 (TK-10) was > 100 µM (inactive) and the GI50 (RXF 393) was > 100 µM (inactive). For the same molecule, the GI50 (SR) was > 100 µM (inactive), the GI50 (SNB-75) was > 100 µM (inactive) and the GI50 (RPMI-8226) was > 100 µM (inactive). For the same molecule, the GI50 (CCRF-CEM) was > 100 µM (inactive), the GI50 (SN12C) was > 100 µM (inactive) and the GI50 (UACC-62) was > 100 µM (inactive). The GI50 (NCI-H226) was 15.6 µM (inactive), the GI50 (MOLT-4) was > 100 µM (inactive) and the GI50 (HOP-92) was > 100 µM (inactive). The GI50 (EKVX) was > 100 µM (inactive), the GI50 (A549) was > 100 µM (inactive) and the GI50 (SNB-19) was > 100 µM (inactive). For the same molecule, the GI50 (DLD-1) was > 100 µM (inactive), the GI50 (HOP-62) was > 100 µM (inactive) and the GI50 (SK-OV-3) was > 100 µM (inactive). The GI50 (HT-29) was > 100 µM (inactive), the GI50 (SK-MEL-2) was > 100 µM (inactive) and the GI50 (UACC-257) was > 100 µM (inactive). The GI50 (RXF 631) was > 100 µM (inactive), the GI50 (CAKI-1) was > 100 µM (inactive) and the GI50 (U-251) was > 100 µM (inactive). For the same molecule, the GI50 (M19-MEL) was > 100 µM (inactive), the GI50 (NCI-H23) was > 100 µM (inactive) and the GI50 (SW-620) was > 100 µM (inactive). The GI50 (NCI-H460) was > 100 µM (inactive), the GI50 (SF-539) was > 100 µM (inactive) and the GI50 (HCC 2998) was > 100 µM (inactive). For the same molecule, the GI50 (A498) was > 100 µM (inactive) and the GI50 (HOP-18) was > 100 µM (inactive).
